Active and inactive are the calls of the source.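 The calls were made as follows: active = p38 protein level shifted at least 30% from solvent-only control, either down or up; inactive = shift under 30% either way.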
Biological target: Mitogen-activated protein kinase 14 (Homo sapiens) (UniProt Q16539)
Experiment: altered p38 MAPK protein abundance – SW620 cells, chemiluminescent western blot, powder samples, counter-screen for KLF5 inhibitor project, late-stage follow-up (AID 588662)
Conditions: 24 h, at 10 µM

Sequence of Mitogen-activated protein kinase 14 (Homo sapiens) (Q16539 whole entry, looked up): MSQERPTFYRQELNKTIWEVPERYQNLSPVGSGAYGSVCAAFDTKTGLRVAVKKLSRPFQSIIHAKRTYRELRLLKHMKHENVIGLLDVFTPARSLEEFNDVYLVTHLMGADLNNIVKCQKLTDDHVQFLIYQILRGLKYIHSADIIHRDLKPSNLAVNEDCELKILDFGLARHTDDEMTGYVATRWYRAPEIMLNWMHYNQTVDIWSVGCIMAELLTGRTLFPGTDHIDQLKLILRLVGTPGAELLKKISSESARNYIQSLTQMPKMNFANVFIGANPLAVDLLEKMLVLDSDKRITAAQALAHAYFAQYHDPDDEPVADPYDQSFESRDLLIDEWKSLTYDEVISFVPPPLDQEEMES

inhibition | SMILES
-3.03% (inactive) | CN(C(=O)COC(=O)/C=C/c1cccc([N+](=O)[O-])c1)C1CCS(=O)(=O)C1 (stereo not drawn)
1.69% (inactive) | CN(C(=O)CNC(=O)/C=C/c1cccc(Cl)c1)C1CCS(=O)(=O)C1 (stereo not drawn)
-41.1% | CN(C(=O)CNC(=O)/C=C/c1cccc(Cl)c1)C1CCS(=O)(=O)CC1

From PubChem BioAssay AID588662 (The Scripps Research Institute Molecular Screening Center, 2011)
